Results: patent publication US20170064958A1, “Active compound combinations having insecticidal properties” (BAYER CROPSCIENCE AKTIENGESELLSCHAFT, priority 2014, published 2017)

Tests used:
Type in all cases: in vivo
[1] = system: two spotted spidermite (Tetranychus urticae); assay: Tetranychus urticae - spray test OP-resistant; conditions: single active ingredient, French bean leaf disks; for Efficacy in % after 2d: 0.8 g ai/ha, mortality after 2 d
Protocol: (§1) To produce a suitable preparation of active compound, 1 part by weight of active compound is mixed with the stated amount of solvents and is diluted with water, containing an emulsifier concentration of 1000 ppm, to the desired concentration. To produce a suitable preparation of a spore suspension the spores are diluted with emulsifier containing water to the desired concentration. Further test concentrations are prepared by dilution with emulsifier containing water.
French bean (Phaseolus vulgaris) leaf disks which are heavily infested with all stages of the two spotted spidermite (Tetranychus urticae), are sprayed with a preparation of the active ingredient of the desired concentration.
After the specified period of time, mortality in % is determined 100% means all spider mites have been killed and 0% means none of the spider mites have been killed. The mortality values determined thus are recalculated using the Colby-formula (see sheet 1).

[2] = system: green peach aphid (Myzus persicae); assay: Myzus persicae - spray test; conditions: single active ingredient, 0.8 g ai/ha, mortality after 1 d, Chinese cabbage leaf disks
Protocol: as §1
Chinese cabbage (Brassica pekinensis) leaf disks infected with all instars of the green peach aphid (Myzus persicae), are sprayed with a preparation of the active ingredient of the desired concentration.
After the specified period of time, mortality in % is determined 100% means all aphids have been killed; 0% means none of the aphids have been killed. The mortality values determined thus are recalculated using the Colby-formula (see sheet 1).

[3] = system: mustard beetle larvae (Phaedon cochleariae); assay: Phaedon cochleariae - spray test; conditions: single active ingredient, 0.16 g ai/ha, mortality after 6 d, Chinese cabbage leaf disks
Protocol: as §1
Chinese cabbage (Brassica pekinensis) leaf disks are sprayed with a preparation of the active ingredient of the desired concentration. Once dry, the leaf disks are infested with mustard beetle larvae (Phaedon cochleariae).
After the specified period of time, mortality in % is determined. 100% means all beetle larvae have been killed and 0% means none of the beetle larvae have been killed. The mortality values determined thus are recalculated using the Colby-formula (see sheet 1).

Compound: CC1(C)[C@H](C(=O)O[C@H](C#N)c2cccc(Oc3ccccc3)c2)[C@@H]1C=C(Br)Br [Deltamethrin]
- Efficacy in % after 2d [1]: 0%

Compound: Cc1c(COC(=O)[C@@H]2[C@H](/C=C(\Cl)C(F)(F)F)C2(C)C)cccc1-c1ccccc1 (racemic) [Bifenthrin]
- Efficacy in % after 2d [1]: 0%

Compound: CC1(C)[C@H](C(=O)O[C@H](C#N)c2cccc(Oc3ccccc3)c2)[C@@H]1/C=C\C(=O)OC(C(F)(F)F)C(F)(F)F [Acrinathrin]
- Efficacy in % after 1d [2]: 70%
- Efficacy in % after 6d ([1]; 0.16 g ai/ha, mortality after 6 d): 0%
- Efficacy in % after 2d [1]: 0%

Compound: CC1(C)[C@H](C(=O)O[C@H](C#N)c2cccc(Oc3ccccc3)c2)[C@@H]1/C=C(\Cl)C(F)(F)F (racemic) [Lambda- Cyhalothrin, lambda-Cyhalothrin]
- Efficacy in % after 6d [3]: 33%
